Assay results: patent US20230114728A1 (Venatorx Pharmaceuticals, Inc., priority 2019, published 2023)
Values after ≈ are worked out from the molar mass of the structure shown. Like-named read-outs stand apart in the source and are kept apart here.

How the values were obtained:
Experiment in all cases: Broth microdilution MIC in iron-depleted CAMHB (IDM)
Assay type in all cases: cell-based
[1] = test system: A. baumannii ATCC 19606; details: Acinetobacter baumannii
Experimental: (§1) Example IV: In Vitro Antibacterial Assays in Iron-Depleted Cation-Adjusted Mueller-Hinton Broth
(§2) To determine the ability of test compounds to inhibit the growth bacterial strains under conditions of iron-depletion, classic cell based broth microdilution minimum inhibitory concentration (MIC) assays were employed. MIC assays are performed according to CLSI methods except where otherwise noted (CLSI, 2018 and CLSI, 2019). The reference type strain E. coli ATCC 25922 was used to determine the ability of the PBP inhibitors to inhibit the growth of Enterobacteriaceae. Wild-type P. aeruginosa ATCC 27853, A. baumannii ATCC 17978 and A. baumannii ATCC 19606, along with the hyper-permeable P. aeruginosa ATCC 35151, an engineered efflux pump-compromised strain of P. aeruginosa (ΔmexAB-oprM), and an engineered efflux-pump compromised strain of A. baumannii IL123 (ABΔ3-ARAEcPore) were used to determine the ability of PBP inhibitors to penetrate the outer membrane of P. aeruginosa and A. baumannii and assess antibacterial activity against these important gram-negative organisms.
(§3) Briefly, cryo-preserved bacterial cultures of challenge strains are streaked for isolation on appropriate agar medium, in this case cation-adjusted Mueller Hinton agar. Following incubation to allow growth of the colonies, plates are sealed with parafilm and stored refrigerated for up to two weeks. For preparation of assay inoculum and to ensure low variability, at least 5 colonies are picked from the agar plates with an inoculating loop and aseptically transferred to a culture tube containing 3 mL of iron-depleted cation-adjusted Mueller Hinton broth (IDM)—see below for IDM preparation. The broth culture is grown for 3-5 hours at 37° C. with shaking at 200 rpm. Meanwhile, 2-fold serial dilutions of test compounds are conducted in a 96-well plate with a final volume of 75 μL per well at 2-fold the final desired concentration. After the dilution plates are set up the growing cultures are then diluted in a cuvette containing IDM and the optical density is measured at 600 nm. The inoculum is diluted such that 75 μL of this culture in IDM results in a starting bacterial concentration of 2-8×10^5 CFU/mL when added to the dilution plates. The plates are incubated for 16-20 hours for Enterobacteriaceae and Pseudomonas and 20-24 hours for Acinetobacter at 37° C. The MIC values are read visually as the lowest concentration well with no bacterial growth.
(§4) Method for Iron-Depleted Cation-Adjusted Mueller Hinton Broth (IDM) Preparation:
(§5) • Prepare cation-adjusted Mueller Hinton broth as per the manufacturer's recommendations and autoclave. • Add 100 g/L Chelex 100 resin, cover with foil and incubate with stirring for 2 hours • Remove Chelex 100 resin by filtration with 0.45 μm filter flask • Add the following back to the medium: • CaCl2 dihydrate: 82.5 mg/L • MgCl2 hexahydrate: 94.1 mg/L • ZnSO4: 10 μM • Adjust pH of medium to 7.3 with 5 N HCl • Sterilize using a 0.22 µm filter flask

[2] = test system: P. aeruginosa ATCC 27853; details: Pseudomonas aeruginosa
Experimental: as §1, §2, §3, §4, §5

[3] = test system: A. baumannii ATCC 17978; details: Acinetobacter baumannii
Experimental: as §1, §2, §3, §4, §5

[4] = test system: A. baumannii CDC-0083 producing NDM-1, PER-7, OXA-23, and OXA-69; details: Acinetobacter baumannii, read-out: Minimum Inhibitory Concentration, CDC-0083
Experimental: as §1, §2, §3, §4, §5

[5] = test system: P. aeruginosa CDC-0090 producing KPC-5, OXA-50, and PAO; details: Pseudomonas aeruginosa, read-out: Minimum Inhibitory Concentration, P. aeruginosa CDC-0090
Experimental: as §1, §2, §3, §4, §5

[6] = test system: A. baumannii CDC-0036 OXA-65, and OXA-24; details: Acinetobacter baumannii, read-out: Minimum Inhibitory Concentration, CDC-0036
Experimental: as §1, §2, §3, §4, §5

[7] = test system: P. aeruginosa CDC-0095 producing OXA-50, and PAO; details: Pseudomonas aeruginosa, read-out: Minimum Inhibitory Concentration, P. aeruginosa CDC-0095
Experimental: as §1, §2, §3, §4, §5

[8] = test system: P. aeruginosa ATCC 35151; details: Pseudomonas aeruginosa, ATCC35151; iron-depleted MHB (IDM); hyper-permeable strain; read-out: Minimum Inhibitory Concentration, P. aeruginosa ATCC 35151
Experimental: as §1, §2, §3, §4, §5

[9] = test system: P. aeruginosa CDC-0054 producing VIM-4, OXA-50, and PAO; details: Pseudomonas aeruginosa, read-out: Minimum Inhibitory Concentration, P. aeruginosa CDC-0054
Experimental: as §1, §2, §3, §4, §5

[10] = test system: A. baumannii CDC-0033 producing NDM-1, and OXA-94; details: Acinetobacter baumannii, read-out: Minimum Inhibitory Concentration, CDC-0033
Experimental: as §1, §2, §3, §4, §5

[11] = test system: P. aeruginosa (ΔmexAB-oprM); details: Pseudomonas aeruginosa, read-out: Minimum Inhibitory Concentration, P. aeruginosa ΔmexAB-OprM
Experimental: as §1, §2, §3, §4, §5

[12] = test system: A. baumannii IL123 (ABΔ3-ARAEcPore); details: Acinetobacter baumannii, read-out: Minimum Inhibitory Concentration, IL-2123
Experimental: as §1, §2, §3, §4, §5

[13] = ATCC19606, read-out: Minimum Inhibitory Concentration, ATCC 19606
[14] = ATCC27853, read-out: Minimum Inhibitory Concentration, P. aeruginosa ATCC 27853
[15] = ATCC17978, read-out: Minimum Inhibitory Concentration, ATCC 17978

Row | Compound | MIC [1, 13] | MIC [2, 14] | MIC [3, 15] | MIC [4] | MIC [5] | MIC [6] | MIC [7] | MIC [8] | MIC [9] | MIC [10] | MIC [11] | MIC [12] | MIC ([1]; ATCC19606, A. baumannii ATCC 19606, iron-depleted MHB (IDM), read-out: Minimum Inhibitory Concentration, ATCC 19606) | MIC ([2]; ATCC27853, iron-depleted MHB (IDM), read-out: Minimum Inhibitory Concentration, P. aeruginosa ATCC 27853) | MIC ([3]; ATCC17978, A. baumannii ATCC 17978, iron-depleted MHB (IDM), read-out: Minimum Inhibitory Concentration, ATCC 17978)
1 | NCCN1CCN(C(=O)N[C@@H](C(=O)N[C@H]2Cc3ccc(F)c(C(=O)O)c3OB2O)c2c(F)cc(O)c(O)c2Cl)C(=O)C1=O (single isomer, unassigned) [Example 26] | 0.5 to 1 µg/mL (≈ 0.799 to 1.6 µM) | 0.5 to 1 µg/mL (≈ 0.799 to 1.6 µM) | 0.25 µg/mL (≈ 0.4 µM) | 0.25 µg/mL (≈ 0.4 µM) | 0.25 µg/mL (≈ 0.4 µM) | 8 to 16 µg/mL (≈ 12.8 to 25.6 µM) | 32 to 64 µg/mL (≈ 51.1 to 102 µM) | 0.25 µg/mL (≈ 0.4 µM) | 0.5 to 1 µg/mL (≈ 0.799 to 1.6 µM) | 2 to 4 µg/mL (≈ 3.2 to 6.39 µM) | 0.25 µg/mL (≈ 0.4 µM) | – | – | – | –
2 | NCCCN1CCN(C(=O)N[C@@H](C(=O)N[C@H]2Cc3ccc(F)c(C(=O)O)c3OB2O)c2c(F)cc(O)c(O)c2Cl)C(=O)C1=O (single isomer, unassigned) [Example 27] | 0.25 µg/mL (≈ 0.391 µM) | 0.5 to 1 µg/mL (≈ 0.782 to 1.56 µM) | 0.25 µg/mL (≈ 0.391 µM) | 0.25 µg/mL (≈ 0.391 µM) | 0.25 µg/mL (≈ 0.391 µM) | 2 to 4 µg/mL (≈ 3.13 to 6.25 µM) | 8 to 16 µg/mL (≈ 12.5 to 25 µM) | 0.25 µg/mL (≈ 0.391 µM) | 0.25 µg/mL (≈ 0.391 µM) | 0.5 to 1 µg/mL (≈ 0.782 to 1.56 µM) | 0.25 µg/mL (≈ 0.391 µM) | – | – | – | –
3 | NCCCN1CCN(C(=O)N[C@H](C(=O)N[C@H]2Cc3ccc(F)c(C(=O)O)c3OB2O)c2ccc(O)c(O)c2Cl)C(=O)C1=O (single isomer, unassigned) [Example 28] | – | – | – | 32 to 64 µg/mL (≈ 51.5 to 103 µM) | 2 to 4 µg/mL (≈ 3.22 to 6.43 µM) | 32 to 64 µg/mL (≈ 51.5 to 103 µM) | 32 to 64 µg/mL (≈ 51.5 to 103 µM) | 0.25 µg/mL (≈ 0.402 µM) | 2 to 4 µg/mL (≈ 3.22 to 6.43 µM) | 32 to 64 µg/mL (≈ 51.5 to 103 µM) | 0.5 to 1 µg/mL (≈ 0.804 to 1.61 µM) | 32 to 64 µg/mL (≈ 51.5 to 103 µM) | 8 to 16 µg/mL (≈ 12.9 to 25.7 µM) | 2 to 4 µg/mL (≈ 3.22 to 6.43 µM) | 0.5 to 1 µg/mL (≈ 0.804 to 1.61 µM)
4 | O=C(O)c1ccc(C(NC(=O)N2CCN(CCNC(=O)c3ccc(O)c(O)c3Cl)C(=O)C2=O)C(=O)N[C@H]2Cc3ccc(F)c(C(=O)O)c3OB2O)cc1F (stereo partly drawn) [Example 11, (3R)-3-(2-(4-carboxy-3-fluorophenyl)-2-(4-(2-(2-chloro-3,4-dihydroxybenzamido)ethyl)-2,3-dioxopiperazine-1-carboxamido)acetamido)-7-fluoro-2-hydroxy-3,4-dihydro-2H-benzo[e][1,2]oxaborinine-8-carboxylic acid] | > 128 µg/mL | 2 to 4 µg/mL (≈ 2.58 to 5.17 µM) | – | – | – | – | – | 0.25 µg/mL (≈ 0.323 µM) | – | – | 0.5 to 1 µg/mL (≈ 0.646 to 1.29 µM) | – | – | – | –
5 | CS(=O)(=O)N1CCN(C(=O)NC(C(=O)N[C@H]2Cc3ccc(F)c(C(=O)O)c3OB2O)c2ccc(O)c(O)c2Cl)C1=O (stereo partly drawn) [Example 23, (3R)-3-(2-(2-chloro-3,4-dihydroxyphenyl)-2-(3-(methylsulfonyl)-2-oxoimidazolidine-1-carboxamido)acetamido)-7-fluoro-2-hydroxy-3,4-dihydro-2H-benzo[e][1,2]oxaborinine-8-carboxylic acid] | 0.25 µg/mL (≈ 0.407 µM) | 0.5 to 1 µg/mL (≈ 0.813 to 1.63 µM) | 0.25 µg/mL (≈ 0.407 µM) | 0.5 to 1 µg/mL (≈ 0.813 to 1.63 µM) | 0.5 to 1 µg/mL (≈ 0.813 to 1.63 µM) | 8 to 16 µg/mL (≈ 13 to 26 µM) | 8 to 16 µg/mL (≈ 13 to 26 µM) | 0.25 µg/mL (≈ 0.407 µM) | 0.5 to 1 µg/mL (≈ 0.813 to 1.63 µM) | 8 to 16 µg/mL (≈ 13 to 26 µM) | 0.25 µg/mL (≈ 0.407 µM) | – | – | – | –
